{"source": "patent US20130072385A1", "about": "“METHODS FOR DELAYING BUD BREAK BY APPLYING ABA ANALOGS” (priority 2011, published 2013)", "format_in_all_cases": "in vivo", "key": {"PF-11 nectarine trees": {"tested_on": "PF-11 nectarine trees", "assay": "Fall foliar spray of PF-11 nectarine trees, bud break the following spring", "conditions": "10,000 ppm in 0.1% Brij 98, fall foliar application; April 8", "protocol": "A study was conducted to determine the effect of spraying nectarine trees with ABA or ABA analogs in the fall on bud break the following spring. Mature PF-11 nectarine trees were sprayed to drip with surfactant alone or surfactant and ABA or ABA analog on Oct. 19, 2009. Trees were sprayed with approximately 500 ml (20.5 grams ABA analog/acre) applied to each of 6 trees per treatment arranged in a randomized complete block design. The following spring bud break on pre-selected branches was monitored."}, "Concord grapevines [1]": {"tested_on": "Concord grapevines", "assay": "Repeated spray of potted Concord grapevines during the bud break period", "conditions": "for Average number of broken buds per vine: 1000 ppm in 0.05% Silwet L77, repeated spray", "protocol": "A study was conducted to determine the effect of spraying Concord grapevines with ABA or ABA analog PBI-429 during bud break. Potted concord grapevines were placed in greenhouse conditions to promote bud break and the vines were repeatedly sprayed with ABA or ABA analog solutions. The vines were sprayed 2, 4, 8, 12 and 14 days after exposure of the vines into bud break promoting temperatures. Bud break was rated 6, 7, 8, 11, 12, 13, 14, 15, 19 and 20 days after vines were placed in warm bud break promoting conditions."}, "Concord grapevines [2]": {"tested_on": "Concord grapevines", "assay": "Fall soil drench of potted Concord grapevines, bud break the following spring", "conditions": "1000 ppm (1000 mg/pot) fall soil drench", "protocol": "A study was conducted to determine the effect of application of ABA or ABA analog as a soil drench in the fall on bud break of potted Concord grapevines the following spring. Two year old eco-dormant Concord grapevines were obtained from a Concord Nurseries in the spring. Bare-root vines were planted in 14 liter pots filled with Promix BX (available from Premier Horticulture Inc. Quakertown, Pa.) and grown outside for about 5 months (May October) prior to treatment. Plants received irrigation as needed and fertilized weekly (1 g/L all purpose fertilizer 20-20-20, The Scotts Company, Marysville, Ohio). Uniform plants were selected for the study. A total of 1000 mL of water or chemical solution was applied to the soil of each plant.\nAfter chemical treatment, the ten replicate plants per treatment were arranged in a randomized complete block experimental design. The potted vines were surrounded by bark chips the depth of the soil in the pot to insulate the roots and prevent cold damage. The plants became dormant for the winter. In the following spring the vines were pruned to 5 buds per vine before bud break and bud break was monitored over time (Table 4). The buds were rated for bud break periodically on a scale from 1 for no growth to 6 for three or more leaves showing\nPotted Concord grapevines were treated with 1000 mL water, solution containing 1000 mg ABA or solution containing 100 mg PBI-429. The dose of RBI-429 was used at one-tenth of ABA dose based on the preliminary results."}, "Seyval Blanc grapevines": {"tested_on": "Seyval Blanc grapevines", "assay": "Soil drench of potted grapevines near the time of bud break, Seyval Blanc", "protocol": "(§1) A study was conducted to determine the effect of ABA applied to the soil of potted grapevines near the time of bud break. Eco-dormant bare-root Seyval Blanc and Canadice grapevines were purchased from Concord Nurseries, North Collins, N.Y. Vines were planted in pots of Promix potting mixture and held in a 5° C. dark chamber prior to treatment. Plants were moved from the 5° C. chamber to a greenhouse set to 20° C. night/25° C. day with a 12 hour light and 12 hour dark light cycle to promote bud break. One group of 5 plants was treated with 250 ml of 1000 ppm ABA (250 mg) as a soil drench 2 days after moving the vines to warm conditions. Another group of vines was treated 6 days after warming and another group of 5 plants was treated 10 days after warming. With the Seyval Blanc grapevines one group of 5 plants was treated at all 3 timings 2, 6, and 10 days after warming (750 mg total). Another group of 5 vines was not treated and acted as an untreated control. […]"}, "perennial plant": {"tested_on": "perennial plant", "assay": "Applicants' field studies over several years on perennial plant bud break", "conditions": "even at high levels, at every application time", "from_the_text": "In order to determine the role ABA had on perennial plant bud break, Applicants conducted field studies for several years. After many experiments."}, "Canadice grapevines": {"tested_on": "Canadice grapevines", "assay": "Soil drench of potted grapevines near the time of bud break, Canadice", "protocol": "as §1"}, "[3]": {"conditions": "1000 ppm soil drench 2 days after warming, evaluated 13 days after warming"}, "[4]": {"conditions": "1000 ppm soil drench 2 days after warming, evaluated 14 days after warming"}, "[5]": {"conditions": "1000 ppm soil drench 2 days after warming, evaluated 15 days after warming"}, "[6]": {"conditions": "1000 ppm soil drench 2 days after warming, evaluated 16 days after warming"}, "[7]": {"conditions": "1000 ppm soil drench 6 days after warming, evaluated 13 days after warming"}, "[8]": {"conditions": "1000 ppm soil drench 6 days after warming, evaluated 14 days after warming"}, "[9]": {"conditions": "1000 ppm soil drench 6 days after warming, evaluated 15 days after warming"}, "[10]": {"conditions": "1000 ppm soil drench 6 days after warming, evaluated 16 days after warming"}, "[11]": {"conditions": "1000 ppm soil drench 10 days after warming, evaluated 13 days after warming"}, "[12]": {"conditions": "1000 ppm soil drench 10 days after warming, evaluated 14 days after warming"}, "[13]": {"conditions": "1000 ppm soil drench 10 days after warming, evaluated 15 days after warming"}, "[14]": {"conditions": "1000 ppm soil drench 10 days after warming, evaluated 16 days after warming"}}, "data": [{"substance": "(S)-5-(1-hydroxy-2,6,6)-trimethyl-4-oxo-2-cyclohexen-1-yl)-3-methyl-(2 Z,4E)-pentadienoic acid [ABA]", "values": [{"measurement": "Percentage of broken floral buds", "setting": "PF-11 nectarine trees", "value": 78, "unit": "Percentage"}, {"measurement": "Average number of broken buds per vine", "setting": "Concord grapevines [1]; 6 days after warming", "value": 0.2}, {"measurement": "Average number of broken buds per vine", "setting": "Concord grapevines [1]; 7 days after warming", "value": 0.2}, {"measurement": "Average number of broken buds per vine", "setting": "Concord grapevines [1]; 8 days after warming", "value": 0.8}, {"measurement": "Average number of broken buds per vine", "setting": "Concord grapevines [1]; 11 days after warming", "value": 2.8}, {"measurement": "Average number of broken buds per vine", "setting": "Concord grapevines [1]; 12 days after warming", "value": 3.2}, {"measurement": "Average number of broken buds per vine", "setting": "Concord grapevines [1]; 13 days after warming", "value": 3.8}, {"measurement": "Average number of broken buds per vine", "setting": "Concord grapevines [1]; 14 days after warming", "value": 4.8}, {"measurement": "Average number of broken buds per vine", "setting": "Concord grapevines [1]; 15 days after warming", "value": 5.3}, {"measurement": "Average number of broken buds per vine", "setting": "Concord grapevines [1]; 19 days after warming", "value": 7.0}, {"measurement": "Average number of broken buds per vine", "setting": "Concord grapevines [1]; 20 days after warming", "value": 7.0}, {"measurement": "Effect on average number of broken buds over time", "setting": "Concord grapevines [1]; repeated spray application during the bud break period", "value": "not significantly impacted"}, {"measurement": "Average rating of bud break (1-6 scale)", "setting": "Concord grapevines [2]; Apr. 23, 2008", "value": 1.0}, {"measurement": "Average rating of bud break (1-6 scale)", "setting": "Concord grapevines [2]; April 28", "value": 1.6}, {"measurement": "Average rating of bud break (1-6 scale)", "setting": "Concord grapevines [2]; April 30", "value": 1.8}, {"measurement": "Average rating of bud break (1-6 scale)", "setting": "Concord grapevines [2]; May 2", "value": 1.8}, {"measurement": "Average rating of bud break (1-6 scale)", "setting": "Concord grapevines [2]; May 5", "value": 2.1}, {"measurement": "Average rating of bud break (1-6 scale)", "setting": "Concord grapevines [2]; May 7", "value": 2.6}, {"measurement": "Average rating of bud break (1-6 scale)", "setting": "Concord grapevines [2]; May 9", "value": 2.9}, {"measurement": "Average rating of bud break (1-6 scale)", "setting": "Concord grapevines [2]; May 12", "value": 3.0}, {"measurement": "Average rating of bud break (1-6 scale)", "setting": "Concord grapevines [2]; May 14", "value": 3.0}, {"measurement": "Average rating of bud break (1-6 scale)", "setting": "Concord grapevines [2]; May 16", "value": 3.4}, {"measurement": "Average rating of bud break (1-6 scale)", "setting": "Concord grapevines [2]; May 19", "value": 4.2}, {"measurement": "Average rating of bud break (1-6 scale)", "setting": "Concord grapevines [2]; May 21", "value": 4.6}, {"measurement": "Average rating of bud break (1-6 scale)", "setting": "Concord grapevines [2]; May 23", "value": 4.9}, {"measurement": "Average rating of bud break (1-6 scale)", "setting": "Concord grapevines [2]; May 28", "value": 5.4}, {"measurement": "Average number of broken buds per vine", "setting": "Seyval Blanc grapevines; 1000 ppm soil drench 2, 6 and 10 days after warming, evaluated 13 days after warming", "value": 1.2}, {"measurement": "Average number of broken buds per vine", "setting": "Seyval Blanc grapevines; 1000 ppm soil drench 2, 6 and 10 days after warming, evaluated 14 days after warming", "value": 4.4}, {"measurement": "Average number of broken buds per vine", "setting": "Seyval Blanc grapevines; 1000 ppm soil drench 2, 6 and 10 days after warming, evaluated 15 days after warming", "value": 4.8}, {"measurement": "Average number of broken buds per vine", "setting": "Seyval Blanc grapevines; 1000 ppm soil drench 2, 6 and 10 days after warming, evaluated 16 days after warming", "value": 7.0}, {"measurement": "Delay of bud break", "setting": "Seyval Blanc grapevines; 1000 ppm soil drench 13-16 days before bud break, cultivar not stated (Seyval Blanc and Canadice study)", "value": 3.5, "unit": "days"}, {"measurement": "Average number of broken buds per vine", "setting": "Seyval Blanc grapevines; [3]", "value": 0.4}, {"measurement": "Average number of broken buds per vine", "setting": "Seyval Blanc grapevines; [4]", "value": 2.2}, {"measurement": "Average number of broken buds per vine", "setting": "Seyval Blanc grapevines; [5]", "value": 3.6}, {"measurement": "Average number of broken buds per vine", "setting": "Seyval Blanc grapevines; [6]", "value": 6.8}, {"measurement": "Average number of broken buds per vine", "setting": "Seyval Blanc grapevines; [7]", "value": 0.2}, {"measurement": "Average number of broken buds per vine", "setting": "Seyval Blanc grapevines; [8]", "value": 1.6}, {"measurement": "Average number of broken buds per vine", "setting": "Seyval Blanc grapevines; [9]", "value": 2.6}, {"measurement": "Average number of broken buds per vine", "setting": "Seyval Blanc grapevines; [10]", "value": 6.8}, {"measurement": "Average number of broken buds per vine", "setting": "Seyval Blanc grapevines; [11]", "value": 1.8}, {"measurement": "Average number of broken buds per vine", "setting": "Seyval Blanc grapevines; [12]", "value": 6.0}, {"measurement": "Average number of broken buds per vine", "setting": "Seyval Blanc grapevines; [13]", "value": 8.6}, {"measurement": "Average number of broken buds per vine", "setting": "Seyval Blanc grapevines; [14]", "value": 11.4}, {"measurement": "Effect on bud break", "setting": "perennial plant", "value": "no appreciable effect on bud break"}, {"measurement": "Average number of broken buds per vine", "setting": "Canadice grapevines; [3]", "value": 0}, {"measurement": "Average number of broken buds per vine", "setting": "Canadice grapevines; [4]", "value": 0}, {"measurement": "Average number of broken buds per vine", "setting": "Canadice grapevines; [5]", "value": 0.8}, {"measurement": "Average number of broken buds per vine", "setting": "Canadice grapevines; [6]", "value": 1.2}, {"measurement": "Average number of broken buds per vine", "setting": "Canadice grapevines; 1000 ppm soil drench 2 days after warming, evaluated 17 days after warming", "value": 1.7}, {"measurement": "Average number of broken buds per vine", "setting": "Canadice grapevines; 1000 ppm soil drench 2 days after warming, evaluated 18 days after warming", "value": 1.7}, {"measurement": "Average number of broken buds per vine", "setting": "Canadice grapevines; [7]", "value": 0.2}, {"measurement": "Average number of broken buds per vine", "setting": "Canadice grapevines; [8]", "value": 0.7}, {"measurement": "Average number of broken buds per vine", "setting": "Canadice grapevines; [9]", "value": 1.2}, {"measurement": "Average number of broken buds per vine", "setting": "Canadice grapevines; [10]", "value": 1.7}, {"measurement": "Average number of broken buds per vine", "setting": "Canadice grapevines; 1000 ppm soil drench 6 days after warming, evaluated 17 days after warming", "value": 2.3}, {"measurement": "Average number of broken buds per vine", "setting": "Canadice grapevines; 1000 ppm soil drench 6 days after warming, evaluated 18 days after warming", "value": 2.5}, {"measurement": "Average number of broken buds per vine", "setting": "Canadice grapevines; [11]", "value": 0.5}, {"measurement": "Average number of broken buds per vine", "setting": "Canadice grapevines; [12]", "value": 1.8}, {"measurement": "Average number of broken buds per vine", "setting": "Canadice grapevines; [13]", "value": 2.3}, {"measurement": "Average number of broken buds per vine", "setting": "Canadice grapevines; [14]", "value": 2.3}, {"measurement": "Average number of broken buds per vine", "setting": "Canadice grapevines; 1000 ppm soil drench 10 days after warming, evaluated 17 days after warming", "value": 2.3}, {"measurement": "Average number of broken buds per vine", "setting": "Canadice grapevines; 1000 ppm soil drench 10 days after warming, evaluated 18 days after warming", "value": 2.7}]}]}
